Laboratory results taken from patent US20200188361A1, “USE OF MITOCHONDRIAL ACTIVITY INHIBITORS FOR THE TREATMENT OF POOR PROGNOSIS ACUTE MYELOID LEUKEMIA” (UNIVERSITE DE MONTREAL, priority 2016, published 2020).
Read-outs that look alike come from different tables or passages of the source.

Assays:
[1] = system: HOX-high AML patient cells; test: Primary chemical screen of 60 compounds, cell dose-response viability assay (CellTiterGlo, 6 days); assay type: cell-based, human; conditions: for EC50: read-out: MEAN EC50 HOX-high
Protocol: (§1) frozen AML mono-nucleated cells were thawed at 37° C. in Iscove's modified Dulbecco's medium (IMDM) containing 20% FBS and DNase I (100 μg/mL).
(§2) All powders were dissolved in DMSO and diluted in culture medium immediately before use. Final DMSO concentration in all conditions was 0.1%. The 60 compounds were purchased from various suppliers including Santa Cruz, Selleckchem, Calbiochem, AdooQ Bioscience, Cayman chemical and Synkinase.
(§3) Patient cells were seeded in 384-well plates at a density of 5,000 cells in 50 μL per well. In the initial screen, compounds were added to seeded cells in serial dilutions (10 dilutions, 1:3, starting from 10 μM or 20 μM), in duplicates. Cells treated with 0.1% DMSO without additional compound were used as negative controls. Viable cell counts per well were evaluated after 6 days of culture using the CellTiterGlo® assay (Promega®) according to the manufacturer's instruction.
(§4) Using high expression of HOXA9 and HOXA10 as a surrogate for the detection of HOX-network-high patient samples, the survival of HOX-high versus HOX-med/low specimens contacted with 60 inhibitors targeting receptor tyrosine kinases (RTK), members of the RAS and PI3K pathways, was assessed (FIG. 2A, Table 4).

[2] = system: HOX-med/low AML patient cells; test: as above; assay type: cell-based, human; conditions: read-out: MEAN EC50 HOX-med/low
Protocol: as §1, §2, §3, §4

[3] = primary screen, mean over HOX-high patient specimens, 6 days culture, top concentration 10 μM or 20 μM
[4] = ratio of mean EC50 HOX-high to mean EC50 HOX-med/low
[5] = primary screen, mean over HOX-med/low patient specimens, 6 days culture, top concentration 10 μM or 20 μM
[6] = Homo sapiens, 144 h, primary screen, mean over HOX-high patient specimens, 6 days culture, top concentration 10 μM or 20 μM
[7] = Homo sapiens, 144 h, primary screen, mean over HOX-med/low patient specimens, 6 days culture, top concentration 10 μM or 20 μM

SMILES	EC50 [1, 3] [µM]	FOLD CHANGE High/Med-low [1, 4]	EC50 [2, 5] [µM]	EC50 [1, 6] [µM]	EC50 [2, 7] [µM]	FOLD CHANGE High/Med-low [1]	EC50 [1] [µM]	EC50 [2] [µM]
Cc1nc2cc3nc(-c4cccs4)cnc3cc2n1C [AGL2043]	8.88	1.1	8.38	–	–	–	–	–
c1cc(CN2CCCNCCNCCCNCC2)ccc1CN1CCCNCCNCCCNCC1 [AMD3100]	–	1.0	–	9.59	> 10	–	–	–
CNC(=O)c1cccc(-c2ccc3c(N4CCOC[C@@H]4C)nc(N4CCOC[C@@H]4C)nc3n2)c1 [AZD2014, 3-(2,4-bis((S)-3-methylmorpholino)pyrido[2,3-d]pyrimidin-7-yl)-N-methylbenzamide]	–	3.6	–	0.782	0.217	–	–	–
COc1ccc(-c2ccc3c(N4CCOC[C@@H]4C)nc(N4CCOC[C@@H]4C)nc3n2)cc1CO [AZD8055, (5-(2,4-bis((S)-3-methylmorpholino)pyrido[2,3-d]pyrimidin-7-yl)-2-methoxyphenyl)methanol]	–	4.7	–	0.324	0.0692	–	–	–
Cc1nc(NC(=O)N2CCC[C@H]2C(N)=O)sc1-c1ccnc(C(C)(C)C(F)(F)F)c1 [BYL719]	–	1.6	–	7.52	4.75	–	–	–
O=C(NOCC1CC1)c1ccc(F)c(F)c1Nc1ccc(I)cc1Cl [CI1040 PD.184352.]	–	0.9	–	2.44	2.77	–	–	–
Cc1nc(Nc2ncc(C(=O)Nc3c(C)cccc3Cl)s2)cc(N2CCN(CCO)CC2)n1 [Dasatinib]	–	2.4	–	0.774	0.322	–	–	–
COc1cc2nccc(Oc3ccc(NC(=O)NC4CC4)c(Cl)c3)c2cc1C(N)=O [E7080 Lenvatinib., Lenvatinib]	–	2.2	–	7.29	3.34	–	–	–
Nc1[nH]nc2nnc(-c3c(-c4ccccc4)nn4ccccc34)cc12 [ERK Inhibitor II FR180204]	> 10	1.0	> 10	–	–	–	–	–
Cn1cc(C2=C(c3cn(C4CCN(Cc5ccccn5)CC4)c4ccccc34)C(=O)NC2=O)c2ccccc21 [Enzastaurin]	–	1.0	–	9.84	> 10	–	–	–
C#Cc1cccc(Nc2ncnc3cc(OCCOC)c(OCCOC)cc23)c1 [Erlotinib]	–	0.9	–	8.66	9.14	–	–	–
CS(=O)(=O)N1CCN(Cc2cc3nc(-c4cccc5[nH]ncc45)nc(N4CCOCC4)c3s2)CC1 [GDC0941]	–	1.8	–	1.11	0.603	–	–	–
CC[C@H](Nc1ncnc2[nH]cnc12)c1nc2cccc(F)c2c(=O)n1-c1ccccc1 [GS1101 idelalisib CAL101, idelalisib]	–	1.3	–	7.47	5.67	–	–	–
COc1cc2ncnc(Nc3ccc(F)c(Cl)c3)c2cc1OCCCN1CCOCC1 [Gefitinib]	–	0.9	–	–	–	–	–	–
COc1cc2nccc(Oc3ccc(NC(=O)Nc4ccc(F)cc4F)c(F)c3)c2cc1OC [Ki8751]	0.844	1.1	0.768	–	–	–	–	–
O=c1cc(N2CCNCC2)oc2c(-c3ccccc3)cccc12 [LY303511]	–	–	–	> 10	> 10	–	–	–
Nc1cccc2c1CN(C1CCC(=O)NC1=O)C2=O (stereo not shown) [Lenalidomide]	–	0.7	–	7.31	9.91	–	–	–
NC(=O)N1CCC(CC(=O)N2CCC([C@H]3c4ncc(Br)cc4CCc4cc(Cl)cc(Br)c43)CC2)CC1 [Lonafarnib]	–	0.7	–	2.49	3.67	–	–	–
NC1(c2ccc(-c3nc4ccn5c(=O)[nH]nc5c4cc3-c3ccccc3)cc2)CCC1 [MK2206]	–	2.2	–	2.28	1.04	–	–	–

SMILES	EC50 [1, 3] [µM]	FOLD CHANGE High/Med-low [1, 4]	EC50 [2, 5] [µM]	EC50 [1, 6] [µM]	EC50 [2, 7] [µM]	FOLD CHANGE High/Med-low [1]	EC50 [1] [µM]	EC50 [2] [µM]
Cc1ccc(NC(=O)c2ccc(CN3CCN(C)CC3)cc2)cc1Nc1nc(-c2cccnc2)cs1 [Masitinib]	–	1.5	–	7.01	4.57	–	–	–
Nc1ncnc2c1c(-c1cccc(OCc3ccccc3)c1)cn2C1CC(CN2CCC2)C1 (stereo not shown) [NVPAEW541]	1.73	1.0	1.77	–	–	–	–	–
Cc1ccc(C(=O)Nc2cccc(C(F)(F)F)c2)cc1Nc1nc(-c2cccnc2)nc2c1cnn2C [NVPBHG712]	4.44	0.9	5.21	–	–	–	–	–
Cc1cn(-c2cc(NC(=O)c3ccc(C)c(Nc4nccc(-c5cccnc5)n4)c3)cc(C(F)(F)F)c2)cn1 [Nilotinib]	–	1.0	–	3.92	3.81	–	–	–
C[C@]1(O)C[C@@H](c2nc(-c3ccc4ccc(-c5ccccc5)nc4c3)c3c(N)nccn32)C1 [OS1906 Linsitinib., Linsitinib]	–	1.1	–	4.25	3.94	–	–	–
COc1cccc2cc(-c3nc([C@H]4CC[C@H](C(=O)O)CC4)n4ncnc(N)c34)[nH]c12 [OSI027, (1r,4r)-4-(4-amino-5-(7-methoxy-1H-indol-2-yl)imidazo[1,5-f][1,2,4]triazin-7-yl)cyclohexanecarboxylic acid]	–	3.1	–	2.03	0.666	–	–	–
COc1cccc(-c2cc(=O)c3ccccc3o2)c1N [PD98059]	–	1.0	> 10	–	–	–	–	–
CNc1cc2c(Nc3cccc(Br)c3)ncnc2cn1 [PD158780]	7.47	1.0	7.71	–	–	–	–	–
CCN(CC)CCCCNc1ncc2cc(-c3cc(OC)cc(OC)c3)c(NC(=O)NC(C)(C)C)nc2n1 [PD173074]	4.95	1.0	5.2	–	–	–	–	–
Cc1[nH]c(/C=C2\C(=O)Nc3cc(-c4ccccc4)ccc32)c(C)c1CCC(=O)O [PDGFR Tyrosine Kinase Inhibitor VII]	6	2.1	2.84	–	–	–	–	–
CC(C)(C)c1cc(NC(=O)Nc2ccc(-c3cn4c(n3)sc3cc(OCCN5CCOCC5)ccc34)cc2)no1 [Quizartinib]	–	0.4	–	0.23	0.52	–	–	–
Nc1nc(Nc2ccc3c(c2)CCC(N2CCCC2)CC3)nn1-c1cc2c(nn1)-c1ccccc1CCC2 (stereo not shown) [R428]	0.487	0.8	0.592	–	–	–	–	–
CO[C@H]1C[C@@H]2CC[C@@H](C)[C@@](O)(O2)C(=O)C(=O)N2CCCC[C@H]2C(=O)O[C@H]([C@H](C)C[C@@H]2CC[C@@H](O)[C@H](OC)C2)CC(=O)[C@H](C)/C=C(\C)[C@@H](O)[C@@H](OC)C(=O)[C@H](C)C[C@H](C)/C=C/C=C/C=C/1C [Rapamycin]	–	2.0	–	1.89	0.951	–	–	–
COc1ccc(Cl)c(Nc2nc3ccccc3nc2NS(=O)(=O)c2cccc(NC(=O)C(C)(C)N)c2)c1 [SAR245408 XL147]	–	–	–	> 10	> 10	–	–	–
CN(C)CCOc1ccc(-c2nc(-c3ccncc3)c(-c3ccc4c(c3)CC/C4=N\O)[nH]2)cc1 [SB590885]	–	1.5	–	5.88	3.88	–	–	–
C[S+]([O-])c1ccc(-c2nc(-c3ccc(F)cc3)c(-c3ccncc3)[nH]2)cc1 (stereo not shown) [SB.203580]	–	–	–	–	–	1.0	> 10	> 10
CC(C)c1cc(/C=C(\C#N)C(=O)NCCCc2ccccc2)cc(C(C)C)c1O [SU1498]	9.86	1.0	9.67	–	–	–	–	–
Cn1cnc2c(F)c(Nc3ccc(Br)cc3Cl)c(C(=O)NOCCO)cc21 [Selumetinib AZD6244., Selumetinib]	–	0.9	–	1.24	1.38	–	–	–
